Measured values: patent US20180110781A1, “SYSTEM AND METHOD FOR DIAGNOSIS AND TREATMENT OF NEUROPSYCHIATRIC DISORDERS” (Research Foundation For Mental Hygiene, Inc., priority 2016, published 2018)
Entries after “also recorded” stand apart in the source; their conditions may differ. Where a name gives a salt, the structure may show the parent alone.

Legend:
[1] = tested on: outpatients with schizophrenia or schizoaffective disorder; experiment: Six-week trial of Kuvan: UCSD Performance Based Skills Assessment-Brief (UPSA-B); format: in vivo, human
Description: (§1) A six-week, rater-blind, multivitamin-controlled trial of Kuvan® was performed at the Lieber Schizophrenia Research Clinic, New York State Psychiatric Institute. Clinically stable outpatients with schizophrenia or schizoaffective disorder were randomly assigned to receive Kuvan® (20mg/kg/day) or a single, daily multivitamin tablet, added to their medication regimen. Subjects were also genotyped for the GCH1 gene promotor polymorphism (r510137071). The primary clinical efficacy outcome was change in total Positive and Negative Symptom Scale (PANSS) scores, measured at baseline, then weeks 2, 4 and 6. Improvements in function was measured by the UPSA-B, at baseline, then week 6. The primary cognitive outcome was measured by the MCCB, measured at baseline and week 6. A priori defined secondary outcomes were PANSS factor scores and MCCB domain scores. Data were analyzed using a mixed effects repeated measures model (Stata v14.1, College Station, TX). Models included fixed effects of treatment, time (week) and the treatment by time interaction, with random subject and time effects. Genotype (GCH1 A allele versus GG genotype) was also included as a fixed effect in additional models. […] All hypothesis tests were two-sided, with significance determined at unadjusted p<0.05.

[2] = tested on: outpatients with schizophrenia or schizoaffective disorder; experiment: Six-week trial of Kuvan: MATRICS Consensus Cognitive Battery (MCCB); format: in vivo, human
Description: as §1

[3] = tested on: outpatients with schizophrenia or schizoaffective disorder; parameters: species or system human; conditions: in vivo
Description: A six-week, rater-blind, multivitamin-controlled trial of Kuvan® was performed at the Lieber Schizophrenia Research Clinic, New York State Psychiatric Institute. Clinically stable outpatients with schizophrenia or schizoaffective disorder were randomly assigned to receive Kuvan® (20mg/kg/day) or a single, daily multivitamin tablet, added to their medication regimen. Subjects were also genotyped for the GCH1 gene promotor polymorphism (r510137071). The primary clinical efficacy outcome was change in total Positive and Negative Symptom Scale (PANSS) scores, measured at baseline, then weeks 2, 4 and 6. Improvements in function was measured by the UPSA-B, at baseline, then week 6. The primary cognitive outcome was measured by the MCCB, measured at baseline and week 6. A priori defined secondary outcomes were PANSS factor scores and MCCB domain scores.
No AEs were considered by the investigators to be serious. 75% (9/12) of subjects randomized to the multivitamin group and 61.5% (8/13) of those treated with Kuvan® experienced an AE, which was not statistically different (p=0.47). There was no statistically significant difference in the average number of AEs experienced by each subject (Kuvan=2.44±1.13; Multivitamin=3.0±2.07, p=0.49), or the degree to which each AEs was considered related to the study medication (Kuvan 18/24 total events; multivitamin 13/22 total events, p=0.35). Additionally, two subjects prematurely discontinued from the study based upon the predefined stopping rules, both of whom had been randomized to the multivitamin group.

[4] = tested on: outpatients with schizophrenia or schizoaffective disorder; experiment: Six-week rater-blind multivitamin-controlled trial of Kuvan: Positive and Negative Symptom Scale (PANSS); format: in vivo, human
Description: as §1

[5] = did not reach two-tailed statistical significance

`C[C@H](O)[C@H](O)[C@H]1CNc2nc(N)[nH]c(=O)c2N1` [Kuvan®, saproterin dihydrochloride] was tested, and the “UPSA-B Financial subscale, Kuvan group versus multivitamin group” value ([1]; baseline to week 6, p<0.001) was “performance improvement”, the “treatment*time*genotype interaction on total UPSA-B score” value ([1]; p=0.096) was “trend towards significance” and the “unadjusted UPSA-B Financial Subscale scores, change between baseline and study end” value ([1]; paired sample t-tests, Kuvan p=0.039, multivitamin p=0.025) was “significant increase”. The “UPSA-B score, treatment*time interaction” value ([1]; primary functional outcome) was “did not show a significant treatment*time interaction”, the “MCCB composite score, final mean” value ([2]; GCH1 A allele patients, study end (week 6), Kuvan n=5 p=0.044, multivitamin n=8 p=0.36 vs baseline) was 34.4±11.89 and the “MCCB composite score, baseline mean” value ([2]; GCH1 A allele patients, Kuvan n=5, multivitamin n=8) was 28.4±8.62. The “interaction of treatment, time and genotype on the MCCB Composite Score” value ([2]; GCH1 A allele versus GG, p=0.002, dihydrochloride) was “significant effect of GCH1 genotype by treatment group; also recorded: significant interaction”, the “A allele carriers exhibiting improvement on the MCCB composite T score” value ([2]; baseline to study end, Kuvan 4/5, multivitamin 2/8) was 80% and the “MCCB Social Cognition domain, Kuvan group versus multivitamin group” value ([2]; baseline to week 6, p=0.085) was “trend toward significance”. For the same molecule, the “MCCB social cognition domain score, change from baseline” value [2, 5] was “increased from baseline”, the “MCCB working memory domain score, change from baseline” value [2, 5] was “increased from baseline” and the “MCCB Working Memory domain, Kuvan group versus multivitamin group” value ([2]; n=13 vs n=12 completers, baseline to week 6, p=0.05) was “performance improvement”. For the same molecule, the “cognitive change from baseline (MCCB composite) in GCH1 A allele patients” value ([2]; paired t-test p=0.044) was “significant cognitive improvement”, the “MCCB composite score, treatment*time interaction” value ([2]; primary cognitive outcome, one-tailed trend p=0.0735) was “did not show a significant treatment*time interaction” and the “AEs considered related to the study medication” value ([3]; human, 6 weeks) was 18/24. For the same molecule, the “average number of AEs experienced by each subject” value ([3]; human, 6 weeks) was 2.44±1.13, the “subjects who experienced an adverse event” value ([3]; human, 6 weeks) was 61.5% and the “severity of adverse events” value [3] was “generally mild”. For the same molecule, the “change in total PANSS score, treatment effect” value ([4]; Kuvan 20mg/kg/day vs daily multivitamin, baseline to week 6, treatment*time p>0.05) was “no treatment effect”, the “PANSS factor scores (Positive, Negative and General Psychopathology), treatment*time effect” value ([4]; Kuvan vs multivitamin, six weeks) was “no significant treatment*time effect” and the “genotype effect (treatment*time*genotype) on total PANSS score” value ([4]; p<0.1 for each visit compared to baseline) was “A genotype effect was not observed”.
